pEC50: −log10 of the molar value. “Also recorded” adds a separate entry of the source. Like-named read-outs stand apart in the source and are kept apart here.
Legend:
[1] = molecular target: T1, human KCa2.3 (Homo sapiens, UniProt Q9UGI6); test: Manual whole-cell patch-clamp KCa2.3 activation (COS-7); format: cell-based
T1 construct: The cloning of hKCa2.3 (19 CAG repeats) and hKCa3.1 has been previously described (Wulff et al., 2000)
Description: (§1) Cells, Cell lines and Clones. […] The cloning of hKCa2.3 (19 CAG repeats) and hKCa3.1 has been previously described (Wulff et al., 2000). The hKCa2.3 clone was later stably expressed in COS-7 cells at Aurora Biosciences Corp., San Diego, Calif. Cell lines stably expressing other mammalian ion channels were gifts from several sources: hKCa1.1 in HEK-293 cells (Andrew Tinker, University College London); hKV2.1 in HEK293 cells (James Trimmer, UC Davis); KV11.1 (HERG) in HEK-293 cells (Craig January, University of Wisconsin, Madison); hNaV1.4 in HEK-293 cells (Frank Lehmann-Horn, University of Ulm, Germany), hNaV1.5 in HEK-293 cells (Christopher Lossin, University of California Davis), and hCaV1.2 in HEK-293 cells (Franz Hofmann, Munich, Germany).
(§2) Electrophysiology. Experiments were conducted either manually with an EPC-10 amplifier (HEKA, Lambrecht/Pfalz, Germany) or on a QPatch-16 automated electrophysiology platform (Sophion Biosciences, Denmark). […] Patch pipettes were pulled from soda lime glass (micro-hematocrit tubes, Kimble Chase, Rochester, N.Y.) and had resistances of 2-3 MΩ. […] Free Ca^2+ concentrations were calculated with MaxChelator assuming a temperature of 25° C., a pH of 7.2 and an ionic strength of 160 mM. […] Na^+ aspartate Ringer was used as an external solution (in mM): 160 Na^+ aspartate, 4.5 KCl, 2 CaCl2, 1 MgCl2, 5 HEPES, pH 7.4, 290-310 mOsm. […] Reduction of both peak and tail current by the drug was determined. NaV1.7 currents were recorded with 30 ms pulses from −90 mV to −10 mV every 10 sec with a CsF-based pipette solution and normal Ringer as an external solution. CaV1.2 currents were elicited by 100-ms depolarizing pulses from −80 to 20 mV every 10 sec with a CsCl-based pipette solution and an external solution containing 30 mM BaCl2. Blockade of both Na^+ and Ca^2+ currents was determined as reduction of the current minimum.
For all electrophysiology experiments solutions of benzothiazoles and benzooxazoles were always freshly prepared from 1 mM or 10 mM stock solutions in DMSO during the experiment. The final DMSO concentration never exceeded 1%. For automated assays glass vial inserts (Sophion Biosciences, Denmark) were filled with 350-400 μL of compound solution and placed into the glass insert base plate for use in the QPatch assay right before starting the QPatch.
The compounds synthesized by these methods as well as five commercially available compounds were tested for their KCa2.3 and KCa3.1 activating activity using either manual or automated whole-cell patch-clamp. Our group previously described the establishment of a QPatch assay for KCa3.1 modulators. […] We here made use of this assay and determined EC50 values for KCa3.1 activation using HEK-293 cells stably expressing human KCa3.1. Activities on human KCa2.3 were determined by manual electrophysioiogy since we currently only have KCa2.3 available in COS-7 cells, which are difficult to handle on the QPatch.

[2] = molecular target: T2, KCa3.1 (Homo sapiens, UniProt O15554+P0DP23); test: Whole-cell patch-clamp KCa3.1 activation (QPatch, HEK-293); format: cell-based; parameters: host or cells: HEK-293; conditions: for pEC50: 250 nM free Ca2+, read-out: EC50 for KCa3.1 activation; for effect of structural change on KCa2.3 and KCa3.1 activation compared with SKA-31: SAR, FIG. 2; for EC50: Appendix A, read-out: KCa3.1 EC50 (converted); for reduction of potency compared with SKA-31: KCa3.1
Description: as §1, §2
For automated electrophysiology experiments cells were grown to ˜70% confluency, rinsed in sterile PBS containing 0.02% EDTA, and lifted with 2 mL of TrypLE™ Express (Gibco, Grand Island, N.Y.) for ˜2 min. When cells were rounded but not detached, they were dislodged by gentle tapping, suspended in DMEM, centrifuged and resuspended in 1 ml of external solution, placed into the Qfuge tube and resuspended in 150-200 μL extracellular solution after one additional spin on the QPatch. Whole-cell patch-clamp experiments were then carried out using disposable 16-channel planar patch chip plates (QPlates; patch hole diameter approximately 1 μm, resistance 2.00±0.02 MΩ). […] In order to avoid rejection of cells with large KCa3.1 currents the minimum seal resistance for whole-cell requirement was lowered to 0.001 GΩ. […] Following establishment of the whole-cell configuration, cells were held at −80 mV and KCa3.1, KCa2.1 or KCa2.2 currents elicited by a voltage protocol that held at −80 mV for 20 ms, stepped to −120 mV for 20 ms, ramped from −120 to 40 mV in 200 ms and then stepped back to −120 mV for 20 ms. This pulse protocol was applied every 10 s. […] NaV1.2 currents from N1E-115 cells, NaV1.4 and NaV1.5 currents from stably transfected HEK cells were recorded with 20 ms pulses from −90 mV to 0 mV every 10 sec with a KF-based internal solution and normal Ringer as an external solution. Current slopes (in ampere per sec) were measured using the SophionQPatch software and exported to Microsoft Excel and Origin 7.0 (OriginLab Corp. MA) for analysis. […] Data fitting to the Hill equation to obtain EC50 and IC50 values was performed with Origin 7.0. Data are expressed as mean±SD.

[3] = molecular target: KCa2.1 (Homo sapiens, UniProt Q92952); conditions: literature, cited from earlier work
[4] = molecular target: T2, KCa3.1; conditions: literature; cited from earlier work
[5] = tested on: porcine coronary arteries; test: Isometric myography on porcine coronary arteries, bradykinin-induced EDH-type relaxation; conditions: blocker 1 μM
[6] = tested on: KCa2 channels; conditions: all three KCa2 channels; literature; cited from earlier work
[7] = 250 nM free Ca2+, read-out: EC50 for KCa2.3 activation
[8] = Appendix A, read-out: KCa2.3 EC50

T1 sequence (Q9UGI6 with tags, fused parts or gaps DUP76-80): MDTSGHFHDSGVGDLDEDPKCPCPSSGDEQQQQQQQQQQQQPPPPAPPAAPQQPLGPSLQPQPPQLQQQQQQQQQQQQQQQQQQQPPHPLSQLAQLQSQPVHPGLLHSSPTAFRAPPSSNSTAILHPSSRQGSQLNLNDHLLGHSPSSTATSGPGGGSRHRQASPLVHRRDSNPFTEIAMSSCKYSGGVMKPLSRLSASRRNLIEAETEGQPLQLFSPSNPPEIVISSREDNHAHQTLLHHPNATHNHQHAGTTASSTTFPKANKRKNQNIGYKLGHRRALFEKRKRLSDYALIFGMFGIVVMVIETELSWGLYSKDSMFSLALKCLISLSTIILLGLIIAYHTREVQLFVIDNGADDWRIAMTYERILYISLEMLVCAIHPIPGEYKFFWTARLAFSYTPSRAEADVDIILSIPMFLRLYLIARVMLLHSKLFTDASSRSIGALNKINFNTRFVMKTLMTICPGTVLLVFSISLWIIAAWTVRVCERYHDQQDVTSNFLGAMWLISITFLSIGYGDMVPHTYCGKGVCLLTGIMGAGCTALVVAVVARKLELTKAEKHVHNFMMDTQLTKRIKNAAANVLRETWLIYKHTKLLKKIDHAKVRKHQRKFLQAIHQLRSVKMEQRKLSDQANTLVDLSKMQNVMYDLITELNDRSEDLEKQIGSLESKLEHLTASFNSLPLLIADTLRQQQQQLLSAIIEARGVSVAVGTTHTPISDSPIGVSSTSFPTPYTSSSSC

melting point | effect of structural change on KCa2.3 and KCa3.1 activation compared with SKA-31 [2] | SMILES | further results
253 °C | – | Nc1nc2c(cc(Cl)c3ccccc32)s1 [SKA-72, 5-Chloronaphtho[1,2-d]thiazol-2-amine] | pEC50 [1, 7]: 6.47; pEC50 [2]: 6.96
265 °C | reduced potency and selectivity | N#Cc1cc2sc(N)nc2c2ccccc12 [SKA-107, 2-Aminonaphtho[1,2-d]thiazole-5-carbonitrile] | –
– | – | Cc1cc(C)n(-c2nc(Nc3ccc(Cl)cc3)c3ncn(C)c3n2)n1 [NS13001] | activity on KCa2.1 [3]: completely inactive; activity on KCa3.1 [4]: completely inactive
213 °C | reduced potency and selectivity | COc1cc2sc(N)nc2c2ccccc12 [SKA-117, 5-Methoxynaphtho[1,2-d]thiazol-2-amine] | –
217 °C (dec.) | reduced both potency and selectivity | Nc1nc2c(s1)Cc1cc(F)ccc1-2 [SKA-71, 6-Fluoro-8H-indeno[1,2-d]thiazol-2-amine] | –
– | reduced both potency and selectivity | Nc1nc2c(s1)Cc1ccccc1-2 [SKA-69, 8H-Indeno[1,2-d]thiazol-2-amine] | –
109 °C (dec.) | reduced both potency and selectivity | CC1Cc2sc(N)nc2-c2ccccc21 (stereo not shown) [SKA-113, 5-Methyl-4,5-dihydronaphtho[1,2-d]thiazol-2-amine] | –
– | reduced both potency and selectivity | Nc1nc(-c2cccc3ccccc23)cs1 [SKA-75, 2-Amino-4-(1-naphthyl)thiazole] | –
– | completely abolished activity | CC1=Nc2c(ccc3ccccc23)C1(C)C [SKA-92, 2,3,3-trimethyl-3H-benzo[g]indole] | pEC50 [1, 8]: < 4.30; EC50 [2]: 42 µM
– | reduced both potency and selectivity | Nc1nc2c(s1)CCc1ccccc1-2 [SKA-70, 4,5-Dihydronaphtho[1,2-d]thiazol-2-amine] | –
– | – | Cc1cc(NC2CCCCC2)nc(-n2nc(C)cc2C)n1 [CyPPA, cyclohexyl-[2-(3,5-dimethyl-pyrazole-1-yl-)6-methyl-pyrimidin-4-yl]-amine] | activity on KCa2.1 [3]: completely inactive; activity on KCa3.1 [4]: completely inactive
159 °C | reduced both potency and selectivity | Cc1cc(C)c2c(c1)-c1nc(N)sc1CC2 [SKA-108, 6,8-Dimethyl-4,5-dihydronaphtho[1,2-d]thiazol-2-amine] | –
157 °C | – | Cc1cc(C)c2ccc3sc(N)nc3c2c1 [SKA-109, 6,8-Dimethylnaphtho[1,2-d]thiazol-2-amine] | reduction of potency compared with SKA-31 [2]: 10 fold
– | – | CON=CNc1nc2nccc(C(C)Oc3ccc(Cl)cc3C)n2n1 (single isomer, unassigned; (-)) [(-)-CM-TMPF, N-{7-[1-(4-chloro-2-methylphenoxy)ethyl]-[1,2,4]triazolo[1,5-a]pyrimidin-2-yl}-N′-methoxy-formamidine] | KCa2.1 currents increased to % of their maximal activity ([3]; Ca2+ concentrations between 10 and 100 nM): roughly 40%
– | – | Nc1nc2c(ccc3ccccc32)o1 [SKA-102, Naphtho[1,2-d]oxazol-2-amine] | pEC50 [1, 8]: 4.62; pEC50 [2]: 5.57
– | – | Clc1ccccc1C(c1ccccc1)(c1ccccc1)n1cccn1 [TRAM-34, 1-[(2-chlorophenyl)diphenylmethyl]-1H-pyrazole, reference compound] | effect on the potentiation of BK-induced relaxation by SKA-111/SKA-121 [5]: prevented the increase of relaxation; also recorded: prevented this potentiation
257 °C | – | Nc1nc2c(cc3c4c(cccc42)CC3)s1 [SKA-73, 4,5-Dihydroaceoaphtho[5,4-d]thiazol-8-amine] | pEC50 [1, 7]: 6.00; pEC50 [2]: 6.00
– | – | Nc1nc2c(cc(F)c3ccccc32)s1 [SKA-106, 5-Fluoronaphtho[1,2-d]thiazol-2-amme] | reduction of potency compared with SKA-31 [2]: roughly 10 fold
200 °C | reduced both potency and selectivity | COc1cccc2c1CCc1sc(N)nc1-2 [SKA-114, 6-Methoxy-4,5-dihydronaphtho[1,2-d]thiazol-2-amine] | –
– | completely abolished activity | Cc1nc2c(ccc3ccccc32)s1 [SKA-74, 2-methylnaphtho[1,2-d]thiazole] | EC50 [2]: 7.8 µM
195 °C | reduction in potency | Nc1nc2c3c(ccc2s1)CCC3 [SKA-81, 7,8-Dihydro-6H-indeno[4,5-d]thiazol-2-amine] | –
– | completely abolished activity | Cc1nc2cc3ccccc3cc2o1 [SKA-104, 2-methylnaphtho[2,3-d]oxazole] | EC50 [2]: > 50 µM
– | – | c1cc2cc(c1)C[n+]1ccc(c3ccccc31)NCc1ccc(cc1)CNc1cc[n+](c3ccccc13)C2 [UCL1684, 6,10-diaza-3(1,3)8,(1,4)-dibenzena-1,5(1,4)-diquinolinacyclodecaphane, reference compound] | effect on KCa2.3 currents activated by 20 μM SKA-121 ([1]; FIG. 4F): had a similar effect
– | – | CCn1c(=O)[nH]c2ccccc21 [EBIO, 1-ethylbenzimidazolin-2-one] | pEC50 [6]: ~3.52
161 °C | reduction in potency | Nc1nc2c(ccc3sccc32)s1 [SKA-110, Thieno[2′,3′:5,6]benzo[1,2-d]thiazol-2-amine] | –
– | – | Cc1cc2oc(N)nc2c2ccccc12 [SKA-120, 5-Methylnaphtho[1,2-d]oxazol-2-amine] | pEC50 [2]: 6.74; EC50 [2]: 0.45 µM; selectivity for KCa3.1 over KCa2.3 ([2]; ratio of EC50 values): ~50 fold

SMILES | melting point | effect of structural change on KCa2.3 and KCa3.1 activation compared with SKA-31 [2] | further results
Nc1nc(-c2ccc3ccccc3c2)cs1 [SKA-76, 2-amino-4-(2-naphthyl)thiazole] | – | reduced both potency and selectivity | –

— US11173146B2, “Selective activators of the intermediate conductance CA2+activated K+ channel KCa3.1 and their methods of use” (The Regents of the University of California, priority 2014, dated 2021)
